The structures appear in SMILES notation.

The target of assay [1] is T1, Human β-cardiac myosin (2-hep and 25-hep HMM) (Homo sapiens, UniProt P12883).
T1 construct: gene MYH7
Nature of the assay: basal ATPase assay of recombinant HMM. The class given is biochemical.

Assay [2] concerns the target T2, β-cardiac full-length myosin (Bos taurus, UniProt Q9BE39).
T2 construct: gene MYH7; full-length myosin in synthetic thick filaments; also HMM and S1-subfragment
Description: basal ATPase, enzymatically coupled assay on purified myosin. It is filed as biochemical.

T2 sequence (Q9BE39 whole entry, the tested form may be a part): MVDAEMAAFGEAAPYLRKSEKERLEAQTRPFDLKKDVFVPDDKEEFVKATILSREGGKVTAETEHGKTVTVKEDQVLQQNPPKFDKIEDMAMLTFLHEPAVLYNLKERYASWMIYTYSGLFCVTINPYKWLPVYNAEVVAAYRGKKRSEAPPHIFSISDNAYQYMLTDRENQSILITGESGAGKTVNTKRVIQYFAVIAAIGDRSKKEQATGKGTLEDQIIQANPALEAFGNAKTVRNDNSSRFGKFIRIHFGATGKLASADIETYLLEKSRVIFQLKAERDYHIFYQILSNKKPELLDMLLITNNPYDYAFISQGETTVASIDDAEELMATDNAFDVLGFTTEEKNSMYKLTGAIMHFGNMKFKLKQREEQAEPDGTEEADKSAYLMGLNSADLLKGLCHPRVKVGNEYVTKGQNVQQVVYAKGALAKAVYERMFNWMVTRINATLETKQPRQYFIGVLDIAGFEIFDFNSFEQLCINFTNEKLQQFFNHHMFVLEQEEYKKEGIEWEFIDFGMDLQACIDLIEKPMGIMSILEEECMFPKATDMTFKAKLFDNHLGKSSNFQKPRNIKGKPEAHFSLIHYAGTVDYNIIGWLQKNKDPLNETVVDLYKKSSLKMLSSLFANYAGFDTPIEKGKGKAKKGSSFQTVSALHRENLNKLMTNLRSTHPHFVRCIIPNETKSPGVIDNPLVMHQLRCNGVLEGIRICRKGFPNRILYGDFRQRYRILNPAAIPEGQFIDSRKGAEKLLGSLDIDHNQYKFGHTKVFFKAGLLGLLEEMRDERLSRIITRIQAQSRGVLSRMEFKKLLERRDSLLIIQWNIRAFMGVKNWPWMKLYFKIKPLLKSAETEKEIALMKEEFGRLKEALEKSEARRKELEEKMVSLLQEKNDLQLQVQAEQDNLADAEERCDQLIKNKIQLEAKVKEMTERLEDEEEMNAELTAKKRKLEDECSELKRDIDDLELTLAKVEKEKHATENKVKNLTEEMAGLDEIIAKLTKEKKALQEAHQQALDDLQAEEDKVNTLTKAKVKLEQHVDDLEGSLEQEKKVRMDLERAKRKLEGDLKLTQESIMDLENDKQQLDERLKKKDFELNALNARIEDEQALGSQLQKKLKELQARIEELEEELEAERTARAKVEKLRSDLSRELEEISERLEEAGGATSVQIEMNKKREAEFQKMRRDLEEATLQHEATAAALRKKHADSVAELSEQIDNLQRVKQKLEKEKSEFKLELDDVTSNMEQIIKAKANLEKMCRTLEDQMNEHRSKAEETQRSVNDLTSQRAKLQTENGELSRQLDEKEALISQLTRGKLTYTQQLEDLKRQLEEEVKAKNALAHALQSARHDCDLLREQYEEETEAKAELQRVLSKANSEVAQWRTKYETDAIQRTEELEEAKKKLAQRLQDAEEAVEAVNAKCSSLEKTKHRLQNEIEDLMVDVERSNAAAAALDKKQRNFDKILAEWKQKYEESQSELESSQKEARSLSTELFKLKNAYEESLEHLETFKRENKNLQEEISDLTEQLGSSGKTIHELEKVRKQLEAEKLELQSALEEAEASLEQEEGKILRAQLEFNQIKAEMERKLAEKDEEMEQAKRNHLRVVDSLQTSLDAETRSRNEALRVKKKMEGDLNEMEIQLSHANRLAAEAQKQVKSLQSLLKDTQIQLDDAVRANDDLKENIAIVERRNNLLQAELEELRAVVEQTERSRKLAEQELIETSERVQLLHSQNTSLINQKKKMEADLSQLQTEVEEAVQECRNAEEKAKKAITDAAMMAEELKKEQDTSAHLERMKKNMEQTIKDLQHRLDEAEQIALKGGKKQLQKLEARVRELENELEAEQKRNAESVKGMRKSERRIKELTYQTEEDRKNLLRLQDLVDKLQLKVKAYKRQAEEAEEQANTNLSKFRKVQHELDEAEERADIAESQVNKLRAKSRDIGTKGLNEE
T1 sequence (P12883 1-855): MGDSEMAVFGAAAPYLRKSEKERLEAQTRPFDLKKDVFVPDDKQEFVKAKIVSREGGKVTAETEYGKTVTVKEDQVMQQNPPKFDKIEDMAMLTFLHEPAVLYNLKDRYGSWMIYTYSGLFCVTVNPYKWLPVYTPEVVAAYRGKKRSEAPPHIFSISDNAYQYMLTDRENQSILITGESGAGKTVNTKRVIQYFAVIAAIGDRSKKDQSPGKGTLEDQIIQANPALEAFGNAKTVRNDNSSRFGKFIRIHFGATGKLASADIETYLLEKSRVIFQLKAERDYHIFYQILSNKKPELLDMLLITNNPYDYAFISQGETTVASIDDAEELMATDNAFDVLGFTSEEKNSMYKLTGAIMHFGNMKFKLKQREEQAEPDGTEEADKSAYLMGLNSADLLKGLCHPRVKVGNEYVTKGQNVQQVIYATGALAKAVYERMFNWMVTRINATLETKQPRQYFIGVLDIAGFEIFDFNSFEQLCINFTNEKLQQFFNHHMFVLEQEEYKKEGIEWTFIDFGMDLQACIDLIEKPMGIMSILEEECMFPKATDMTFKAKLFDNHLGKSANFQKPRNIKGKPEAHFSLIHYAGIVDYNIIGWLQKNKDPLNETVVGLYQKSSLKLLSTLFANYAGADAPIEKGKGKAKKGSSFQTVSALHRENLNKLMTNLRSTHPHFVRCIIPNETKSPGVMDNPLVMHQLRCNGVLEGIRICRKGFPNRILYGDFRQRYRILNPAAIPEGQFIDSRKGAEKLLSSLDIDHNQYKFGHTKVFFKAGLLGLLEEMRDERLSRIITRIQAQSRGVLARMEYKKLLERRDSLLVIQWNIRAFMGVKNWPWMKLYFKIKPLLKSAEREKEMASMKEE

`Nc1ncnc2c1ncn2[C@@H]1O[C@H](COP(=O)(O)OP(=O)(O)OP(=O)(O)O)[C@@H](O)[C@H]1O` [ATP]: the “Raw values at pCa 8” value in assay [1] stood at 0.1 ± 0.05 s^−1; in assay [2], 0.03 ± 0.01 s^−1.

For the origin of these results see publication PMC9629851, “Cardiac myosin filaments are directly regulated by calcium” (The Journal of General Physiology, 2022).
